In ChEMBL document CHEMBL3864157, “The synthesis and antistaphylococcal activity of dehydroabietic acid derivatives: Modifications at C-12” (2016):
≈ marks a conversion by molar mass, not a printed value.

What was measured:
Format in all cases: functional
[1] = test system: Staphylococcus aureus; assay: Antibacterial activity against Staphylococcus aureus Newman
[2] = test system: Staphylococcus aureus; assay: Antibacterial activity against gentamicin-resistant Staphylococcus aureus NRS-108
[3] = test system: Staphylococcus aureus; assay: Antibacterial activity against erythromycin-resistant Staphylococcus aureus NRS-70
[4] = test system: Staphylococcus aureus; assay: Antibacterial activity against linezolid-resistant Staphylococcus aureus NRS-271
[5] = test system: Staphylococcus aureus; assay: Antibacterial activity against oxacillin/tetracycline-resistant Staphylococcus aureus NRS-100
[6] = test system: Staphylococcus aureus; assay: Antibacterial activity against aminoglycosides/tetracycline-resistant Staphylococcus aureus NRS-1

| SMILES | MIC [1] [µg/mL] | MIC [2] [µg/mL] | MIC [3] [µg/mL] | MIC [4] [µg/mL] | MIC [5] [µg/mL] | MIC [6] [µg/mL] |
| --- | --- | --- | --- | --- | --- | --- |
| CC(C)c1cc2c(cc1C(=NO)C1CCCCC1)[C@@]1(C)CCC[C@@](C)(C(=O)O)[C@@H]1CC2 | 12.5 to 25 (≈ 29.4 to 58.7 µM) | – | – | – | – | – |
| CC(C)c1cc2c(cc1C(=NO)c1ccc(C(F)(F)F)cc1)[C@@]1(C)CCC[C@@](C)(C(=O)O)[C@@H]1CC2 | > 50 | – | – | – | – | – |
| C=CCON=C(c1cccs1)c1cc2c(cc1C(C)C)CC[C@H]1[C@](C)(C(=O)O)CCC[C@]21C | 25 to 50 (≈ 53.7 to 107 µM) | – | – | – | – | – |
| CCC(=NOC)c1cc2c(cc1C(C)C)CC[C@H]1[C@](C)(C(=O)O)CCC[C@]21C | > 50 | – | – | – | – | – |
| CON=C(c1ccccc1)c1cc2c(cc1C(C)C)CC[C@H]1[C@](C)(C(=O)O)CCC[C@]21C | 5 (≈ 11.5 µM) | – | – | – | – | – |
| CCCC(=NOC)c1cc2c(cc1C(C)C)CC[C@H]1[C@](C)(C(=O)O)CCC[C@]21C | 40 to 50 (≈ 100 to 125 µM) | – | – | – | – | – |
| C#CCON=C(c1cccc(C(F)(F)F)c1)c1cc2c(cc1C(C)C)CC[C@H]1[C@](C)(C(=O)O)CCC[C@]21C | 1.56 to 3.13 (≈ 2.97 to 5.95 µM) | > 25 | > 25 | > 25 | > 25 | > 25 |
| CC(C)C(=NO)c1cc2c(cc1C(C)C)CC[C@H]1[C@](C)(C(=O)O)CCC[C@]21C | > 50 | – | – | – | – | – |
| C=CCON=C(c1cc2c(cc1C(C)C)CC[C@H]1[C@](C)(C(=O)O)CCC[C@]21C)c1ccccc1C(F)(F)F | 0.78 to 1.56 (≈ 1.48 to 2.96 µM) | 6.25 to 12.5 (≈ 11.8 to 23.7 µM) | 1.56 to 3.13 (≈ 2.96 to 5.93 µM) | > 50 | 6.25 to 12.5 (≈ 11.8 to 23.7 µM) | 12.5 to 25 (≈ 23.7 to 47.4 µM) |
| CCC(=NOCc1ccccc1)c1cc2c(cc1C(C)C)CC[C@H]1[C@](C)(C(=O)O)CCC[C@]21C | > 50 | – | – | – | – | – |
| CON=C(c1ccc(Cl)cc1Cl)c1cc2c(cc1C(C)C)CC[C@H]1[C@](C)(C(=O)O)CCC[C@]21C | 1.56 to 3.13 (≈ 3.1 to 6.23 µM) | > 25 | 1.56 to 3.13 (≈ 3.1 to 6.23 µM) | > 25 | > 25 | > 25 |
| C=CCON=C(c1cc2c(cc1C(C)C)CC[C@H]1[C@](C)(C(=O)O)CCC[C@]21C)C(C)C | 10 to 12.5 (≈ 23.5 to 29.4 µM) | – | – | – | – | – |
| C/C(=N\OCc1ccccc1)c1cc2c(cc1C(C)C)CC[C@H]1[C@](C)(C(=O)O)CCC[C@]21C | > 50 | – | – | – | – | – |
| CON=C(c1cccs1)c1cc2c(cc1C(C)C)CC[C@H]1[C@](C)(C(=O)O)CCC[C@]21C | 6.25 to 12.5 (≈ 14.2 to 28.4 µM) | – | – | – | – | – |
| CC(C)c1cc2c(cc1C(=NO)c1ccccc1C(F)(F)F)[C@@]1(C)CCC[C@@](C)(C(=O)O)[C@@H]1CC2 | 1.56 to 3.13 (≈ 3.2 to 6.42 µM) | 1.56 to 3.13 (≈ 3.2 to 6.42 µM) | 1.56 to 3.13 (≈ 3.2 to 6.42 µM) | 1.56 to 3.13 (≈ 3.2 to 6.42 µM) | 1.56 to 3.13 (≈ 3.2 to 6.42 µM) | 1.56 to 3.13 (≈ 3.2 to 6.42 µM) |
| C=CCON=C(CC)c1cc2c(cc1C(C)C)CC[C@H]1[C@](C)(C(=O)O)CCC[C@]21C | > 50 | – | – | – | – | – |
| CC(C)C(=NOCc1ccccc1)c1cc2c(cc1C(C)C)CC[C@H]1[C@](C)(C(=O)O)CCC[C@]21C | > 50 | – | – | – | – | – |
| C#CCON=C(c1cccs1)c1cc2c(cc1C(C)C)CC[C@H]1[C@](C)(C(=O)O)CCC[C@]21C | 1.56 to 3.13 (≈ 3.36 to 6.75 µM) | – | – | – | – | – |
| CCC(=NO)c1cc2c(cc1C(C)C)CC[C@H]1[C@](C)(C(=O)O)CCC[C@]21C | > 50 | – | – | – | – | – |
| C=CCON=C(c1ccccc1)c1cc2c(cc1C(C)C)CC[C@H]1[C@](C)(C(=O)O)CCC[C@]21C | 1.25 to 2.5 (≈ 2.72 to 5.44 µM) | 1.56 to 2.5 (≈ 3.39 to 5.44 µM) | 1.25 to 1.56 (≈ 2.72 to 3.39 µM) | 1.56 to 2.5 (≈ 3.39 to 5.44 µM) | 1.56 to 2.5 (≈ 3.39 to 5.44 µM) | 2.5 to 3.13 (≈ 5.44 to 6.81 µM) |
| C=CCON=C(c1cccc(C(F)(F)F)c1)c1cc2c(cc1C(C)C)CC[C@H]1[C@](C)(C(=O)O)CCC[C@]21C | > 50 | – | – | – | – | – |
| CON=C(c1cc2c(cc1C(C)C)CC[C@H]1[C@](C)(C(=O)O)CCC[C@]21C)C1CCCCC1 | > 50 | – | – | – | – | – |
| CCCC(=NOCc1ccccc1)c1cc2c(cc1C(C)C)CC[C@H]1[C@](C)(C(=O)O)CCC[C@]21C | > 50 | – | – | – | – | – |
| CC(C)c1ccc2c(c1)CC[C@H]1[C@](C)(C(=O)O)CCC[C@]21C [DEHYDROABIETIC ACID] | 12.5 to 20 (≈ 41.6 to 66.6 µM) | 12.5 to 25 (≈ 41.6 to 83.2 µM) | 12.5 to 25 (≈ 41.6 to 83.2 µM) | 12.5 to 25 (≈ 41.6 to 83.2 µM) | 12.5 to 25 (≈ 41.6 to 83.2 µM) | 12.5 to 25 (≈ 41.6 to 83.2 µM) |
| CN(C)[C@@H]1C(O)=C(C(N)=O)C(=O)[C@@]2(O)C(O)=C3C(=O)c4c(O)cccc4[C@@](C)(O)[C@H]3C[C@@H]12 [TETRACYCLINE] | < 0.2 | < 0.2 | < 0.2 | < 0.2 | < 0.2 | > 25 |
| CN[C@H](CC(C)C)C(=O)N[C@H]1C(=O)N[C@@H](CC(N)=O)C(=O)N[C@H]2C(=O)N[C@H]3C(=O)N[C@H](C(=O)N[C@H](C(=O)O)c4cc(O)cc(O)c4-c4cc3ccc4O)[C@H](O)c3ccc(c(Cl)c3)Oc3cc2cc(c3O[C@@H]2O[C@H](CO)[C@@H](O)[C@H](O)[C@H]2O[C@H]2C[C@](C)(N)[C@H](O)[C@H](C)O2)Oc2ccc(cc2Cl)[C@H]1O [VANCOMYCIN] | 0.78 to 1.56 (≈ 0.538 to 1.08 µM) | 0.39 to 0.78 (≈ 0.269 to 0.538 µM) | 0.2 to 0.39 (≈ 0.138 to 0.269 µM) | 0.39 to 0.78 (≈ 0.269 to 0.538 µM) | 0.39 to 0.78 (≈ 0.269 to 0.538 µM) | 1.56 to 3.13 (≈ 1.08 to 2.16 µM) |
